Laboratory results taken from patent US20240252428A1, “METHODS OF PROVIDING BIRTH CONTROL” (THE POPULATION COUNCIL, INC., priority 2021, published 2024).

Assays:
[1] = PK sub-study of the vaginal system over 13 product-use cycles (21 days in/7 days out), serum SA and EE; assay type: in vivo, human; parameters: AUC0-21 day / AUC0-1 day: concentration or dose not given beside the values
Method: The pharmacokinetics (PK) of the vaginal system described herein were determined during studies related to the prior approved use (i.e., 13 product-use cycles comprising a 21-day “product-in” period and a 7-day “product-out” period). Studies were conducted in 39 women who used the system for up to the 13 product-use cycles. […] Over subsequent product-use cycles, the peak serum concentrations of SA and EE declined.
During a phase 3 trial of the vaginal ring system, three centers participated in a PK sub-study. The PK sub-study was an open-label, multicenter, non-randomized phase 1 study evaluating the PK and pharmacodynamics (PD) of a self-administered vaginal ring system. Enrolled women were healthy, aged 18-38 years, who had regular cycles of 28±7 days and were sexually active with no intention of becoming pregnant for the following 13 months. Exclusion criteria were those typical for oral contraceptive assessments. Women were not permitted to use hormonal contraceptives (other than the study vaginal ring) or vaginal lubricants that could have interfered with steroid absorption during the study.
Women were instructed to use the SA/EE vaginal ring system for 13 consecutive cycles following a 21-days-in and 7-days-out regimen, with the initial ring insertion (day 1 of cycle 1) under investigator supervision at the study clinic. […] In the PK substudy, blood samples from each woman were collected 8 times (see below) per assessed cycles (1, 3, and 13) as per the protocol.
For serum SA and EE measurements, blood samples were collected on treatment days 1-5, 8, 15, and 22 during cycles 1, 3, and 13 with the serum stored at −20° C. Steroid concentrations were determined at each time point using a validated gas chromatography/tandem mass spectrometry (GC-MS/MS; Taylor Technology, Princeton, NJ); the lower limits of quantification (LLOQ) were 50 pg/mL (135 pmol/L) for SA and 10 pg/mL (33.74 pmol/L) for EE. The linear calibration range was 50.0 to 5000 pg/mL for SA and 10.0 to 1000 pg/mL for EE. The inter-assay coefficient of variation for SA was 7-15.5% and for EE 8-13% for low, medium, and high-quality control samples used during assays. The intra-assay coefficient of variation for both SA and EE was lower than 12%.

[2] = PK study in females with BMI <25 vs BMI >25; assay type: in vivo, human; details: 18 females BMI <25 vs 21 females BMI >25
From the text: The vaginal system described herein has not been adequately evaluated in females with a body mass index of >29 kg/m2. […] Higher body weight associates with lower systemic exposure of SA and EE.

[3] = Drug-drug interaction study with vaginal miconazole formulations; assay type: in vivo; details: for overall increase in exposure: with 1 day or 3-day oil-based miconazole suppository; for change in exposure from the vaginal system: with water-based vaginal miconazole cream
From the text: However, the use of either the 1 day or the 3-day oil-based miconazole suppository was associated with an overall increase in exposure up to 67% for EE and 32% for SA. Considering the potential long-term effect on vaginal system performance, concurrent use of oil-based vaginal suppositories should not occur with the system's use. If there is a need to treat a vaginal condition, water-based vaginal cream or oral therapy may be used concurrently with the vaginal system.

[4] = Recoverable SA and EE after storage; assay type: physicochemical; details: for amount recoverable from the vaginal system: over 24 months of storage at 25° C. and 60% relative humidity
Method: This was quite surprising as a similar trend was not observed during long-term stability studies on the cores before assembly.
• Diluent: methanol/water 58/42 v/v • Dried NES and EE before weighing (100-105° C. 3 h) • EE stock solution: Dissolved 25.0 mg of EE and diluted to 250.0 mL with methanol (duplicates, EE1 and EE2) • NES stock solution: Dissolved 50.0 mg of NES and diluted to 100.0 mL with methanol (duplicates, NES1 and NES2) • Standard solutions: • S1: Diluted 5.0 mL of NES1 and 4.0 mL of EE1 to 50.0 mL with diluent • S2: Diluted 6.0 mL of NES2 and 5.0 mL of EE2 to 50.0 mL with diluent • S3: Diluted 8.0 mL of NES1 and 7.0 mL of EE1 to 50.0 mL with diluent • S4: Diluted 10.0 mL of NES2 and 9.0 mL of EE2 to 50.0 mL with diluent • System suitability solution (SST solution): Diluted 5.0 mL acetone+7.0 mL NES1+6.0 mL EE1 to 50.0 mL with diluent.
Rings were cut into 8 pieces and each piece was divided lengthwise then transferred to an Erlenmeyer flask. • 140 mL of acetone (weight of flask was noted before and after acetone addition) was added to the flask.
• analytical column: Discovery C8, 5 μm, 150×4.6 mm (Supelco) • pre-column: Supelguard, Discovery C8, 5 μm, 20×4.0 mm (Supelco) • stationary phase: endcapped C8 (5 μm particle size) USP L7 • temperature: 30° ° C. Mobile phase: methanol/water 58/42, isocratic elution Flow rate: 1.2 mL/min Detection (assay): NES UV 240 nm, EE UV 280 nm Detection (identity): PDA (photodiode array detector) scanning 220-310 nm, NES 240 nm, EE 280 nm
Run time: 15 min System suitability: SST solution • Area precision (n=5): RSD (%)≤2.0 • Peak tailing (T): 0.8≤T≤1.5 • Blank injections: No interfering peaks Retention times: EE approximately 7 min and NES approximately 9 min Results Assay: Report the average value of three different rings and express as mg EE/ring and mg NES/ring. Results Content uniformity: Calculate the average value of ten different rings. Report with or without remarks according the guidelines outlined in the US Pharmacopeial Convention, incorporated herein by reference, and in particular USP <905>. […]

[5] = biological target: T1, progesterone receptor (Homo sapiens, UniProt P06401); test: Progesterone receptor activity of SA metabolites; assay type: biochemical
T1 sequence (P06401 1-933): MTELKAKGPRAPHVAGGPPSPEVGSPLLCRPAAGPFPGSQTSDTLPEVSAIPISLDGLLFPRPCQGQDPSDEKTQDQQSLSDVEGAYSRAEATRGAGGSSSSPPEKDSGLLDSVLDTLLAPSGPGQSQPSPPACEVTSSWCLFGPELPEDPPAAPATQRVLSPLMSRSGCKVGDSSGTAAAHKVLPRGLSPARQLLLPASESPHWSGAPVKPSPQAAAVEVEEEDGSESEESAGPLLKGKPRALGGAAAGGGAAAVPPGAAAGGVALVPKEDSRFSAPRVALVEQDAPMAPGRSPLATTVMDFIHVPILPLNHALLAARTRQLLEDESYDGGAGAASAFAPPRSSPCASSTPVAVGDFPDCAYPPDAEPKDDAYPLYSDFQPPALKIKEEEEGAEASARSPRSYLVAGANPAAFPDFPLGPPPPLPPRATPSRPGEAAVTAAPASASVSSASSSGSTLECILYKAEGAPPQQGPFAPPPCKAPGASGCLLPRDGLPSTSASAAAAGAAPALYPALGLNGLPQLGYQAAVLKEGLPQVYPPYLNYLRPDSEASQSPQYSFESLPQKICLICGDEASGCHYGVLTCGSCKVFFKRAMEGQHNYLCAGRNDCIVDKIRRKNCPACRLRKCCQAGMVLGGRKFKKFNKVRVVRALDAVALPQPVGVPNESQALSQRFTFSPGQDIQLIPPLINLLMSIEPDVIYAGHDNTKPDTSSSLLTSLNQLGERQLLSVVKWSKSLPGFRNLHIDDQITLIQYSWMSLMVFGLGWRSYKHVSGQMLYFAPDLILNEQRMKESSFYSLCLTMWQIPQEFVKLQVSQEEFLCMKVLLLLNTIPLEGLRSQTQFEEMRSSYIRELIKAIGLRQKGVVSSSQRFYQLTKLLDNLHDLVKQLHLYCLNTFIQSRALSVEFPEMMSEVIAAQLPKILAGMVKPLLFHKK
From the text: The hydroxylated EE metabolites have weak estrogenic activity.

[6] = EE in serum, cycle 1, mean (SD)
[7] = EE in serum, cycle 3, mean (SD)
[8] = EE in serum, cycle 13, mean (SD)

C=C1C[C@H]2[C@@H]3CCC4=CC(=O)CC[C@@H]4[C@H]3CC[C@]2(C)[C@@]1(OC(C)=O)C(C)=O [SA, 16-methylene-17α-acetoxy-19-nor-pregn-4-ene-3,20-dione]
AUC0-21 day ([1]; SA in serum, cycle 1, mean): 259,740 pmol*hr/L
Cavg ([1]; SA in serum, cycle 1, mean): 0.516 nM
Cmax ([1]; SA in serum, cycle 1, mean): 3.1 nM
AUC0-1 day ([1]; SA in serum, cycle 1, mean (SD)): 40,500 (8,640) pmol*hr/L
AUC0-21 day ([1]; SA in serum, cycle 3, mean): 480,330 pmol*hr/L
Cavg ([1]; SA in serum, cycle 3, mean): 0.3537 nM
Cmax ([1]; SA in serum, cycle 3, mean): 0.98 nM
AUC0-1 day ([1]; SA in serum, cycle 3, mean (SD)): 36,450 (4,320) pmol*hr/L
AUC0-21 day ([1]; SA in serum, cycle 13, mean): 127,440 pmol*hr/L
Cavg ([1]; SA in serum, cycle 13, mean): 0.254 nM
Cmax ([1]; SA in serum, cycle 13, mean): 0.794 nM
AUC0-1 day ([1]; SA in serum, cycle 13, mean (SD)): 10,530 (3,780) pmol*hr/L
decrease in systemic exposure (AUC 0-21 day) between the two BMI groups [2]: up to 16%
overall increase in exposure [3]: ≤ 32%
change in exposure from the vaginal system [3]: no change
amount recoverable from the vaginal system [4]: remained essentially constant

C#C[C@]1(O)CC[C@H]2[C@@H]3CCc4cc(O)ccc4[C@H]3CC[C@@]21C [EE, 19-nor-17α-pregna-1,3,5(10)-trien-20-yne-3,17-diol]
Cavg ([1]; EE in serum, cycle 1, mean): 0.148 nM
Cmax ([1]; EE in serum, cycle 1, mean): 0.435 nM
AUC0-1 day [1, 6]: 7,077 (2,359) pmol*hr/L
AUC0-21 day [1, 6]: 74,814 (33,026) pmol*hr/L
Cavg ([1]; EE in serum, cycle 3, mean): 0.098 nM
AUC0-1 day [1, 7]: 3,033 (1,348) pmol*hr/L
AUC0-21 day [1, 7]: 49,539 (15,839) pmol*hr/L
Cavg ([1]; EE in serum, cycle 13, mean): 0.064 nM
AUC0-1 day [1, 8]: 2,359 (1,011) pmol*hr/L
AUC0-21 day [1, 8]: 32,352 (13,817) pmol*hr/L
Cmax ([1]; female, human, serum, other: vaginal, EE in serum, cycle 3, mean): 0.202 nM
Cmax ([1]; female, human, serum, other: vaginal, EE in serum, cycle 13, mean): 0.131 nM
Tmax ([1]; female, human, serum, vaginal administration, product-use cycles 1, 3 and 13, read-out: median Tmax): ~2 h
decrease in systemic exposure (AUC 0-21 day) between the two BMI groups [2]: ≤ 33%
overall increase in exposure [3]: up to 67%
change in exposure from the vaginal system [3]: no change
amount recoverable from the core by extraction ([4]; cores before assembly, after extended storage): full amount of EE was found to be recoverable
amount recoverable from the vaginal system [4]: decreased in a time-dependent manner

C=C1CC2C3CCC4CC(=O)CCC4C3CCC2(C)C1(OC(C)=O)C(C)=O (stereo not drawn) [5α-dihydro]
EC50 to progesterone receptor, fold higher than that of SA [5]: 10 fold
